The source of these data is ChEMBL document CHEMBL3507680, “University of Dundee, Gates Library screen for HepG2 cell viability”.

The data set in a line: Human HepG2 cell viability assay in 384 well format. It is filed as toxicity, cell-based. Also on record: dose 125 nL, time 70.5 hour; cytotoxicity at 70.5 h: concentration not given beside the values. The settings on record: HepG2 cells, read-out: Inhibition.
For the molecule `CCC1(CO)CCCN(c2ncccc2C#N)C1` (stereo unspecified), the cytotoxicity at 70.5 h came to 15.7%.

For the molecule `O=C1CCC2(CCN(Cc3cc(F)cc(F)c3)CC2)CN1CCO`, the cytotoxicity at 70.5 h is -1.2%.

As to `COCc1noc(-c2ccc(N3CCCCC3CO)nc2)n1` (stereo unspecified), the cytotoxicity at 70.5 h was -6.84%.

With `COc1cnc(N2CCC(Oc3ccccc3OC)(C(=O)O)CC2)nc1`, the cytotoxicity at 70.5 h was -3.07%.

For `Nc1nccc(NCc2cc3n(n2)CCCN(C(=O)C2CCC2)C3)n1`, the cytotoxicity at 70.5 h is -6.62%.

`CSc1ncccc1C(=O)N1CCC(c2nc3c(C)cccc3[nH]2)CC1`: the cytotoxicity at 70.5 h worked out at 12.8%.

On to `COc1cccc(OCC2CCCN(C(=O)c3cnc(C)nc3O)C2)c1` (stereo unspecified), for which the cytotoxicity at 70.5 h was -9.18%.

Take `CC(C)N(C)C(=O)CN1CCCC(c2ccc(C(=O)O)cc2)C1` (stereo unspecified): the cytotoxicity at 70.5 h stood at 32.3%.

`CC(CN1CCOCC1)NCc1nncn1C1CCCCC1` (stereo unspecified): the cytotoxicity at 70.5 h is -3.01%.

With `CN(Cc1noc(C2CC2)n1)C1CCN(Cc2ccccc2C#N)C1` (stereo unspecified), the cytotoxicity at 70.5 h worked out at 17.8%.

For `Cc1ncc(CN2CCC(N(C)Cc3noc(C4CC4)n3)C2)s1` (stereo unspecified), the cytotoxicity at 70.5 h was 19%.

Consider `Cc1ccc(C(CNC(=O)NCc2ccccn2)N2CCOCC2)o1` (stereo unspecified), for which the cytotoxicity at 70.5 h came to 13.1%.

Regarding `O=C1C(NCc2nnc3n2CCCC3)CCCN1c1ccccc1` (stereo unspecified), the cytotoxicity at 70.5 h was -7.11%.

As for `Cn1cc(CC2CCN(C(=O)NCc3cccc(C(N)=O)c3)C2)cn1` (stereo unspecified), the cytotoxicity at 70.5 h is -13.1%.

Consider `CS(=O)(=O)NCC1CCCN(C(=O)COCC2CC2)C1` (stereo unspecified), for which the cytotoxicity at 70.5 h is -22.4%.

For the molecule `Cc1ccccc1OCC(=O)N1CCCC(CNS(C)(=O)=O)C1` (stereo unspecified), the cytotoxicity at 70.5 h is -5.65%.

Turning to `O=C(NCc1nn(-c2ccccc2)c2c1CCC2)C1CC1`, the cytotoxicity at 70.5 h is -3.11%.

As for `CCn1ccnc1CN1CCN(CC(O)CN2CCOCC2)CC1` (stereo unspecified), the cytotoxicity at 70.5 h is -15.7%.

`Cn1ccnc1CN1CCN(CC(O)c2ccccc2)CC1` (stereo unspecified): the cytotoxicity at 70.5 h was -12.2%.

`CCc1ocnc1C(=O)N1CCCC1c1noc(C(C)C)n1` (stereo unspecified): the cytotoxicity at 70.5 h was -11%.

For the molecule `COC(=O)NCC(=O)NCc1nn(-c2ccccc2)c2c1CCC2`, the cytotoxicity at 70.5 h was -4.34%.

For the molecule `CCOc1cccc(CNC(=O)N2CCC(Cc3cnn(C)c3)C2)c1` (stereo unspecified), the cytotoxicity at 70.5 h is -13.7%.

In the case of `CCOc1ccccc1CNC(=O)N1CCC(Cc2cnn(C)c2)C1` (stereo unspecified), the cytotoxicity at 70.5 h was determined as 7.83%.

For the molecule `CS(=O)(=O)NC1CCCN(C(=O)COCc2ccccc2)C1` (stereo unspecified), the cytotoxicity at 70.5 h was -10.6%.

For the molecule `CC(O)CN1CCC(CNCc2ccccc2F)CC1` (stereo unspecified), the cytotoxicity at 70.5 h is -1.41%.

As to `CC(O)CN1CCC(CNCc2ccccc2C(F)(F)F)CC1` (stereo unspecified), the cytotoxicity at 70.5 h is 13.9%.

Consider `CCc1ocnc1C(=O)N1CCCC1c1noc(C)n1` (stereo unspecified), for which the cytotoxicity at 70.5 h is -5.19%.

`Cc1cnn(CC2CCCN2Cc2c(C)noc2C)c1` (stereo unspecified): the cytotoxicity at 70.5 h was -3.04%.

With `CCc1nc(C2CCCN2C(=O)c2cnns2)no1` (stereo unspecified), the cytotoxicity at 70.5 h was -8.27%.

As for `Cc1nc(C)n(C2CCCN(C(=O)c3cncnc3C)C2)n1` (stereo unspecified), the cytotoxicity at 70.5 h came to 2.45%.

With `Cc1ccc(C(C)C(=O)N2CCCN(Cc3cscn3)CC2)cc1` (stereo unspecified), the cytotoxicity at 70.5 h turned out to be 5.25%.

`O=C(Cc1ccccc1Cl)N1CCN(CC(O)COCCO)CC1` (stereo unspecified): the cytotoxicity at 70.5 h was determined as 1.21%.

As to `CCn1ccnc1CN1CCCN(C(=O)c2ccnc(C)n2)CC1`, the cytotoxicity at 70.5 h is 14.4%.

In the case of `Cc1ncsc1C(=O)NCc1ccnc(N2CCN(C)CC2)c1`, the cytotoxicity at 70.5 h was -7.54%.

Consider `CCN(CC)c1ccc(C(=O)N2CCC(c3nc(C)no3)CC2)cn1`, for which the cytotoxicity at 70.5 h is -7.84%.

Regarding `NC(=O)Cn1cc(NC(=O)N2CCN(c3ccccc3)CC2)cn1`, the cytotoxicity at 70.5 h was -12.6%.

`Cc1noc(C2CCN(C(=O)c3ccc(C(F)(F)F)nc3)CC2)n1`: the cytotoxicity at 70.5 h is -5.24%.

As to `NC(=O)Cn1cc(NC(=O)N2CCSCC2)cn1`, the cytotoxicity at 70.5 h worked out at 15.3%.

In the case of `Cc1nc(CN2CCN(C(C)c3nc(C(C)C)no3)CC2)oc1C` (stereo unspecified), the cytotoxicity at 70.5 h is -0.487%.

Regarding `Cc1cnn(CC2CN(CC(=O)Nc3nccs3)CCO2)c1` (stereo unspecified), the cytotoxicity at 70.5 h is -2.45%.

For `Cc1cnn(CC2CN(CC(=O)Nc3nncs3)CCO2)c1` (stereo unspecified), the cytotoxicity at 70.5 h was -1.53%.
